# From patent publication US20200138907A1, “Composition for Use in the Treatment of an Individual Suffering a Condition Necessitating New Bone Formation” (priority 2016, published 2020)
# What was measured:
# [1] = test system: rabbits; experiment: BMP-2 induced bone formation in subcutaneously implanted BCP constructs, biomembrane pocket model; type: in vivo, rabbit
# Method: For the comparative study (Table 2), inflammatory stimuli were added to the BCP, alone or in combination with BMP-2. Either 1.5 μg of BMP-2 or PBS (15 μl volume) was first applied. Fibrin glue (Tissucol 500®, Baxter, Deerfield, Ill., USA) was subsequently used (55 μl volume) to load the inflammatory mediators onto the constructs. For this purpose, the mediators were resuspended in 27.5 μl of the thrombin component (diluted 1:50 in PBS), then mixed with 27.5 μl of the fibrinogen component (diluted 1:30 in PBS) and immediately pipetted onto the BCP scaffolds. The control samples were treated with fibrin glue alone. The constructs were prepared on the day of surgery and stored in a humidified environment at 37° C. until implantation.
# After shaving and disinfecting the skin with 10% povidone-iodine, a midline incision was made to expose the paraspinal muscles. In the rabbits, four intramuscular pockets were created on each side by blunt dissection for implantation of the PMMA discs (FIG. 2B). The same discs were implanted in subcutaneous pockets via the same approach. Pockets were closed with a non-resorbable suture (Prolene®, Ethicon, USA), followed by closure of the skin (Monocryl®, Ethicon). At the second surgery, an incision was made in the membrane surrounding the PMMA disc, the disc was replaced by a BCP construct, and the opening was sutured (Prolene®, Ethicon). […] Fluorochrome labels were injected subcutaneously to determine the onset and location of new bone formation (van Gaalen et al., 2010): calcein green (10 mg/kg s.c. in 0.2 M NaHCO3, Sigma), oxytetracycline (25 mg/kg s.c. in 50/50 PBS/demineralised water, Merck Millipore, Billerica, USA) xylenol orange (30 mg/kg s.c. in 0.12 M NaHCO3, Sigma). The incorporation of fluorochromes in the bone was examined by fluorescence microscopy on methyl methacrylate-embedded sections. The rabbits were killed 12 weeks after the second surgery under general anesthesia, by intravenous Pentobarbital (Euthanimal®, Alfasan Nederland BV, Woerden, The Netherlands). The rats were killed with CO2, 8 weeks after the second surgery.
# After retrieval of the constructs, a quarter of each sample was removed for decalcification and paraffin embedding. The remaining material was fixed in 4% paraformaldehyde, dehydrated by an ethanol series and embedded in methyl methacrylate (MMA, Merck Millipore).
# [2] = test system: rabbits; experiment: bone induction in intramuscularly implanted BCP constructs without BMP-2, biomembrane pocket model; type: in vivo, rabbit; details: TNF-α 1, 10, 100 ng, no BMP-2, intramuscular, 12 weeks
# Method: First, an assessment study was performed to verify the potential for ectopic bone formation in the biomembrane pocket model. […] The bone volume (area%) in the BCP constructs was the primary outcome after 8 (rats) or 12 (rabbits) weeks. Subsequently, the rabbit model (n=11) was used to 1) screen for the potential of inflammatory stimuli to induce bone intramuscularly and to 2) screen for the effects of inflammatory stimuli on BMP-induced bone formation subcutaneously. The bone volume (area%) in the BCP constructs was the primary outcome after 12 weeks.
# Fibrin glue (Tissucol 500®, Baxter, Deerfield, Ill., USA) was subsequently used (55 μl volume) to load the inflammatory mediators onto the constructs. […]
# After shaving and disinfecting the skin with 10% povidone-iodine, a midline incision was made to expose the paraspinal muscles. […] The incorporation of fluorochromes in the bone was examined by fluorescence microscopy on methyl methacrylate-embedded sections. […]
# After retrieval of the constructs, a quarter of each sample was removed for decalcification and paraffin embedding. […] The samples were completely sectioned and scored for the presence of bone. Two mid-sections were pseudo-coloured in Adobe Photoshop CS6 (Adobe Systems, San Jose, USA) to quantify the percentage of bone in the available pore space (bone area %). […]
substance,measurement,setting,value
TNF-α,bone area %,"[1]; 10 ng TNF-α with 1.5 μg BMP-2, subcutaneous, 12 weeks, p=0.005 vs control",13.6±9.9 area %
same,4-week fluorochrome label (calcein) incorporation in bone,[1]; BCP constructs with 1.5 μg BMP-2 and 10 ng TNF-α vs BMP-2 alone,observed less frequently
same,8-week fluorochrome label (xylenol orange) incorporation in bone,"[1]; BCP constructs with 1.5 μg BMP-2 and 10 ng TNF-α vs BMP-2 alone, gross examination",more abundant
same,effect on BMP-2 induced bone formation (in words),"[1]; all doses, with 1.5 μg BMP-2, subcutaneous, 12 weeks",stimulatory effect
same,bone formation at a higher concentration of TNF-α,"[1]; higher than 10 ng TNF-α, with 1.5 μg BMP-2, subcutaneous, 12 weeks",reduction of bone formation
same,concentration dependence of bone induction,[2],no concentration dependence
same,number of constructs with bone formation,[2],2 constructs
